Experimental data from patent publication US5945453A, “Benzoylphenylurea insecticides to control cockroaches” (Dow AgroSciences LLC, priority 1997, dated 1999).

Assays:
Format in all cases: in vivo
[1] = test system: Cat Flea (Ctenocephalides felis); test: Continuous exposure of larvae to treated media, impact on subsequent adult emergence; settings: for LC50 / LC90: continuous exposure of larvae, adult emergence
Source text: Cat Flea (Ctenocephalides felis)
Continuous exposure of larvae to treated media, impact on subsequent adult emergence

[2] = test system: German cockroach 2nd instars (Blattella germanica); test: Continuous, low-dose ingestion exposure (treated cornmeal)
Source text: (§1) German cockroach 2nd instars (Blattella germanica)
Continuous, low-dose ingestion exposure (treated cornmeal)

[3] = test system: Subterranean Termite (Reticulitermes flavipes); test: Limited exposure (7 days) with mortality determined at 14, 28, 42, and 56 days; settings: for LT50 (days) for 10000 ppm treatment: limited exposure (7 days); for speed of activity, Compound 1 versus hexaflumuron: limited exposure
Source text: (§2) Subterranean Termite (Reticulitermes flavipes)
Limited exposure (7 days) with mortality determined at 14, 28, 42, and 56 days

[4] = test system: Pharaoh Ant (Monomorium pharaonis); test: Laboratory ant bait study, 3-4 day exposure to bait, brood reduction; settings: 0.1%, best results achieved with compound
Description: (§3) Laboratory ant bait studies were carried out with Red Imported Fire Ant (RIFA) (Solenopsis invicta) and Pharaoh Ant (Monomorium pharaonis). Chitin synthesis inhibitors, such as the compounds of the invention, control ants by killing the molting larvae and/or pupae and potentially preventing the hatching of eggs. Because adult workers are not affected, control is measured by effects on the brood.
(§4) The studies involved 3-4 day exposure to bait. These limited exposure studies more accurately represent real world bait availability than continuous exposure.

[5] = test system: Red Imported Fire Ant (RIFA) (Solenopsis invicta); test: as above; settings: for Time to Achieve 50% Brood Reduction / Time to Achieve 90% Brood Reduction: RIFA, best results achieved with compound
Description: as §3, §4

[6] = test system: Subterranean Termite (Reticulitermes virginicus); test: Continuous exposure (56 days) to treated paper; settings: for LT50 (days) for 200 ppm trt / LC50 / speed of action versus hexaflumuron: continuous exposure
Source text: Subterranean Termite (Reticulitermes virginicus)
(§5) Continuous exposure (56 days) to treated paper

[7] = test system: Subterranean Termite (Reticulitermes flavipes); test: Continuous exposure (56 days) to treated paper; settings: for performance versus hexaflumuron: Eastern Subterranean termite
Source text: as §2, §5

[8] = test system: German cockroach 2nd instars (Blattella germanica); test: Limited ingestion exposure (48 hr) to treated cornmeal; settings: for LC50, high / LC50, low: 48 hr limited exposure; for LC50, high: 'high' column; for LC50, low: 'low' column (also holds the value where only one is printed); for potency versus hexaflumuron: limited exposure
Source text: as §1
Limited ingestion exposure (48 hr) to treated cornmeal

[9] = test system: Daphnia; test: Activity against Daphnia, 48 hr exposure to treated water
Source text: 48 hr exposure to treated water

[10] = Southeastern subterranean termite

Row | SMILES | LC50 [1] | LC90 [1] | potency versus hexaflumuron [2] | LC50 ([2]; 21 days) | LC50 ([2]; 42 days) | LT50 (days) for 10000 ppm treatment [3] | speed of activity, Compound 1 versus hexaflumuron [3] | LT50 (days) for 200 ppm trt [6] | LC50 ([6]; 21 days) | LC50 ([6]; 35 days) | speed of action versus hexaflumuron [6, 10] | LT50 (days) for 200 ppm trt [7] | LC50 ([7]; 21 days) | LC50 ([7]; 35 days) | performance versus hexaflumuron [7] | LC50, low ([8]; 21 days) | LC50, low ([8]; 42 days) | potency versus hexaflumuron [8] | activity against Daphnia versus Compound 1 or hexaflumuron [9] | further results
1 | O=C(NC(=O)c1c(F)cccc1F)Nc1cc(Cl)c(OC(F)(F)C(F)C(F)(F)F)c(Cl)c1 (stereo not drawn) [Compound 1, N-[3,5-Dichloro-4-(1,1,2,3,3,3-hexafluoropropoxy)phenyl]-N'-(2,6-difluorobenzoyl) urea] | 8.6 ppm | 12.8 ppm | far superior to hexaflumuron | 14.5 ppm | < 0.23 ppm | 34.5 days | comparable in speed of activity | 10.2 days | 3.5 ppm | < 0.78 ppm | faster acting that hexaflumuron | 32.9 days | > 200 ppm | < 0.78 ppm | no performance advantage | < 1.0 ppm | < 1.0 ppm | far more potent than hexaflumuron |  | activity versus hexaflumuron ([1]; fleas): far more active against fleas than was hexaflumuron; Time to Achieve 50% Brood Reduction [4]: 2 wks; Time to Achieve 90% Brood Reduction [4]: 4 wks; Time to Achieve 50% Brood Reduction ([5]; 0.1%): 2-3 wks; Time to Achieve 90% Brood Reduction ([5]; 0.1%): 4 wks; potency versus hexaflumuron ([5]; short exposure study with RIFA): significantly more potent than hexaflumuron; LC50, high ([8]; 21 days): 52.7 ppm; LC50, high ([8]; 42 days): 30.1 ppm
2 | CCN(C(=O)Nc1cc(Cl)c(OC(F)(F)C(F)C(F)(F)F)c(Cl)c1)C(=O)c1c(F)cccc1F (stereo not drawn) [Compound 2, N-[3,5-Dichloro-4-(1,1,2,3,3,3-hexafluoropropoxy)phenyl]-N'-(2,6-difluorobenzoyl)-N'-ethyl urea] | 329.4 ppm | > 1000 ppm | far superior to hexaflumuron | 9.3 ppm | 5.4 ppm |  |  |  |  |  |  | 34.6 days | > 200 ppm | 22.5 ppm | no performance advantage | 192.0 ppm |  | far more potent than hexaflumuron | far less active against Daphnia than were Compound 1 or hexaflumuron | 
3 | CCN(C(=O)NC(=O)c1c(F)cccc1F)c1cc(Cl)c(OC(F)(F)C(F)C(F)(F)F)c(Cl)c1 (stereo not drawn) [Compound 3, N-[3,5-Dichloro-4-(1,1,2,3,3,3-hexafluoro-propoxy)phenyl]-N'-(2,6-difluorobenzoyl)-N-ethylurea] | 78.0 ppm | 460.7 ppm | far superior to hexaflumuron | 1.3 ppm | 0.78 ppm |  |  | 9.7 days | 62.4 ppm | < 0.78 ppm | faster acting that hexaflumuron |  |  |  | no performance advantage | 52.2 ppm | 30.9 ppm | far more potent than hexaflumuron | far less active against Daphnia than were Compound 1 or hexaflumuron | potency versus hexaflumuron ([6]; 21 days of exposure, Southeastern subterranean termite): more potent at 21 days of exposure
4 | O=C(NC(=O)c1c(F)cccc1F)Nc1cc(Cl)c(OC(F)(F)C(F)F)c(Cl)c1 [hexaflumuron, reference compound] | 65.7 ppm | 333.5 ppm |  | > 200 ppm | > 200 ppm | 32.9 days | comparable in speed of activity | 16.3 days | 28.8 ppm | < 0.78 ppm |  | 25.7 days | > 200 ppm | < 0.78 ppm |  | > 10,000 ppm | > 10,000 ppm |  |  | Time to Achieve 50% Brood Reduction ([5]; 0.25%): 4 wks; Time to Achieve 90% Brood Reduction ([5]; 0.25%): 10 wks
